Laboratory results taken from patent US12391686B2, “Compounds and uses thereof” (Foghorn Therapeutics Inc., priority 2019, dated 2025).

The compounds below were run against T1, Nanoluciferase-BRD9 fusion protein (3×FLAG-NLuc-BRD9) in SYO-1 cells (Homo sapiens, UniProt Q9H8M2) (assay: SYO1 BRD9 NanoLuc Degradation Assay). Conditions: Table 6B; SYO-1 cells expressing 3×FLAG-NLuc-BRD9, 6 hours incubation, 1 μM top dose; read-out: SYO1 BRD9-NanoLuc degradation IC50.
T1 construct: expressed in transfected cells; host or cells: SYO-1
T1 sequence (Q9H8M2 1-597): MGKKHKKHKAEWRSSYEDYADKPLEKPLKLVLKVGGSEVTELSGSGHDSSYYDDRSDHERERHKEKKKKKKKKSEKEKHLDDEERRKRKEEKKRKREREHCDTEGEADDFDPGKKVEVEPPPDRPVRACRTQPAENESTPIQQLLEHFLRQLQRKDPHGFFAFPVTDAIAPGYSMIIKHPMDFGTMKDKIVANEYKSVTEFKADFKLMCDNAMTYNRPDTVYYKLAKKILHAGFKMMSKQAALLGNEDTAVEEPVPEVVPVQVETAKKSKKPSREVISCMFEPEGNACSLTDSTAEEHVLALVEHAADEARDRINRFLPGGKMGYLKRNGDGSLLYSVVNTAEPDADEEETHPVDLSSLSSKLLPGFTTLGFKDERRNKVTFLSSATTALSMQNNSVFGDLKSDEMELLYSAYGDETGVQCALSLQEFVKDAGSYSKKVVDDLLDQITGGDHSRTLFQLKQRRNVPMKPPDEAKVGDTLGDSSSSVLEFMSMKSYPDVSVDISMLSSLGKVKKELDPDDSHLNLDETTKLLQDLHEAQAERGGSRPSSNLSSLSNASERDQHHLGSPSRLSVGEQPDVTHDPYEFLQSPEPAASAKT
Format: cell-based
How it was run: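 NanoLuc signal, read by Nano-Glo luminescence after 6 h compound exposure, gives % inhibition against DMSO-treated cells (high control) and cells given 1 μM of a standard BRD9 degrader (low control). Test compounds ran as 10-point 3-fold series, top 1 μM final, in duplicate on SYO-1 cells stably expressing 3×FLAG-NLuc-BRD9.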

SMILES | DC50 [nM]
COc1cc(-c2cn(C)c(=O)c3cnc(N(C)C)cc23)cc(OC)c1CN1CCN(CC2CCN(c3ccc4c(c3)C(=O)N(C3CCC(=O)NC3=O)C4=O)CC2)CC1 (centres unmarked) [Compound D155] | < 10
CNc1cc2c(=O)n(C)cc(-c3cc(OC)c(CN(C)CC45CC(C(=O)NCCCCCNc6cccc7c6C(=O)N(C6CCC(=O)NC6=O)C7=O)(C4)C5)c(OC)c3)c2cn1 (centres unmarked) [Compound D172] | 10 to 100
CNc1cc2c(=O)n(C)cc(-c3cc(OC)c(CN(C)CC45CC(C(=O)NCCCCCOc6ccc7c(c6)C(=O)N(C6CCC(=O)NC6=O)C7=O)(C4)C5)c(OC)c3)c2cn1 (centres unmarked) [Compound D173] | < 10
CCc1cc(-c2cn(C)c(=O)c3cnc(N(C)C)cc23)cc(OC)c1CN1CCC(CN2CCC3(CC2)CC(Oc2ccc4c(c2)C(=O)N(C2CCC(=O)NC2=O)C4=O)C3)CC1 (centres unmarked) [Compound D174] | < 10
COc1cc(-c2cn(C)c(=O)c3cnc(OC(F)F)cc23)cc(OC)c1CN1CC(CN2CCC3(CC2)CN(c2ccc4c(c2)C(=O)N(C2CCC(=O)NC2=O)C4)C3)C1 (centres unmarked) [Compound D175] | ≥ 1000
COc1cc(-c2cn(C)c(=O)c3ccc(N4CCC4)cc23)cc(OC)c1CN1CCC(N2CCN(c3ccc4c(c3)CN(C3CCC(=O)NC3=O)C4=O)CC2)CC1 (centres unmarked) [Compound D176] | < 10
COc1cc(-c2cn(C)c(=O)c3cnc(N4CCC4)cc23)cc(OC)c1CN1CC(N2CCC(c3ccc4c(c3)CN(C3CCC(=O)NC3=O)C4=O)CC2)C1 (centres unmarked) [Compound D177] | < 10
COc1cc(-c2cn(C)c(=O)c3cnc(N4CCOCC4)cc23)cc(OC)c1CN1CCC(CN2CCC3(CC2)CC(Oc2ccc4c(c2)C(=O)N(C2CCC(=O)NC2=O)C4=O)C3)CC1 (centres unmarked) [Compound D178] | < 10
COc1cc(-c2cn(C)c(=O)c3cnc(N4CCC4)cc23)cc(OC)c1CN1CC(N2CCC(c3ccc4c(c3)C(=O)N(C3CCC(=O)NC3=O)C4)CC2)C1 (centres unmarked) [Compound D179] | ≥ 1000
COc1cc(-c2cn(C)c(=O)c3ccc(N4CCC4)cc23)cc(OC)c1CN1CCC(C2CCN(c3ccc4c(c3)CN(C3CCC(=O)NC3=O)C4=O)CC2)CC1 (centres unmarked) [Compound D181] | ≥ 1000
COc1cc(-c2cn(C)c(=O)c3cnc(N4CCC4)nc23)cc(OC)c1CN1CCC(CN2CCC3(CC2)CC(Oc2ccc4c(c2)CN(C2CCC(=O)NC2=O)C4=O)C3)CC1 (centres unmarked) [Compound D182] | < 10

Next, values leading:

DC50 [nM] | SMILES
< 10 | COc1cc(-c2cn(C)c(=O)c3cnc(N4CCC4)cc23)cc(OC)c1CN1CC(c2ccc3c(c2)C(=O)N(C2CCC(=O)NC2=O)C3=O)C1 (centres unmarked) [Compound D146]
< 10 | COc1cc(-c2cn(C)c(=O)c3cnc(N4CCOCC4)cc23)c(OC)cc1CN1CC(CN2CCC3(CC2)CN(c2ccc4c(c2)C(=O)N(C2CCC(=O)NC2=O)C4)C3)C1 (centres unmarked) [Compound D147]
< 10 | COc1cc(-c2cn(C)c(=O)c3cnc(N4CCC4)cc23)ccc1CN1CCC2(CC1)CN(c1ccc3c(c1)CN(C1CCC(=O)NC1=O)C3=O)C2 (centres unmarked) [Compound D148]
< 10 | COc1cc(-c2cn(C)c(=O)c3cnc(N4CCC4)cc23)ccc1CN1CCC2(CC1)CN(c1ccc3c(c1)C(=O)N(C1CCC(=O)NC1=O)C3)C2 (centres unmarked) [Compound D149]
< 10 | COc1cc(-c2cn(C)c(=O)c3cnc(N4CCC4)cc23)cc(OC)c1CN1CCC(c2ccc3c(c2)C(=O)N(C2CCC(=O)NC2=O)C3=O)CC1C(F)(F)F (centres unmarked) [Compound D150]
< 10 | C/C=C/Cn1cc(-c2cc(OC)c(CN3CCN(CCC4CCN(c5ccc6c(c5)C(=O)N(C5CCC(=O)NC5=O)C6=O)CC4)CC3)c(OC)c2)c2cc(N(C)C)ncc2c1=O (centres unmarked) [Compound D151]
< 10 | COc1cc(-c2cn(C)c(=O)c3cnc(N(C)C)cc23)cc(OC)c1CN1CC(CN2CCC3(CC2)CN(c2ccc4c(c2)C(=O)N(C2CCC(=O)NC2=O)C4)C3)C1 (centres unmarked) [Compound D152]
< 10 | COc1cc(-c2cn(C)c(=O)c3cnc(N4CCC4)cc23)cc(OC)c1CN1CC(CN2CCC3(CC2)CN(c2ccc4c(c2)CN(C2CCC(=O)NC2=O)C4=O)C3)C1 (centres unmarked) [Compound D153]
< 10 | COc1cc(-c2cn(C)c(=O)c3cnc(N(C)C)cc23)cc(OC)c1CN1CCN(c2ccn3c(=O)n(C4CCC(=O)NC4=O)nc3c2)CC1 (centres unmarked) [Compound D154]
